The values below come from patent publication US20260152487A1 (Sitryx Therapeutics Limited, priority 2021, published 2026).

One test has as its target T1, recombinant human PKM2 (Homo sapiens, UniProt P14618).
T1 construct: His (N); purchased R&D Systems
As to the kind of experiment: Human PKM2 activation assay (Kinase-Glo Plus luminescent detection of generated ATP). Format: biochemical. The conditions noted are these: for Emax / hPKM2 Emax: percentage activation normalised to DMSO vehicle (LOW) and 5 μM TEPP-46 (HIGH); for Emax: read-out: hPKM2 Emax; for EC50: recombinant human PKM2 activation, 4-parameter logistic fit, read-out: hPKM2 EC50. In a few lines: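 Luminescent ATP detection (Kinase-Glo Plus, 15 min, 26 °C) followed a 60 min, 26 °C shaken reaction of compound with […] His-tagged human PKM2, PEP and ADP in imidazole/KCl/MgCl2 buffer with Tween20 and BSA, pH 7.2.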
A general note: Kinase-Glo measures the ATP left after a reaction by luminescence.

The next test addresses T2, recombinant human PKLR (Homo sapiens, UniProt P30613).
T2 construct: His (N); purchased R&D Systems
Kind of test: Human PKLR activation assay (Kinase-Glo Plus luminescent detection of generated ATP). Format: biochemical. Particulars: for EC50: activation of recombinant human PKLR, 4-parameter logistic fit, read-out: hPKLR EC50; for Emax: read-out: hPKLR Emax (%). As for the experimental part: Compound activation of recombinant human PKLR pyruvate kinase activity was determined by biochemical assay. N-terminal His-tagged enzyme was sourced from R&D Systems and its substrates phosphoenolpyruvate (PEP) and ADP from Sigma-Aldrich and 2Bscientific Ltd, respectively. The Kinase-Glo® Plus luminescence assay was from Promega. All other reagents were from Sigma-Aldrich. Test Compounds were prepared as 10 mM DMSO stocks and dilution series prepared in DMSO for direct dilution into Assay Buffer comprising 50 mM imidazole, 50 mM KCl, 7 mM MgCl2, 0.01% Tween20, 0.05% BSA (pH 7.2).
Human PKLR was diluted into Assay Buffer to a final concentration of 5 pM. Enzyme-Assay Buffer mix was dispensed into 384-well shallow-well white-walled plates and Test Compounds added by acoustic dispense (Echo®, Labcyte Inc).
After 60 minutes' incubation on an orbital shaker (300 rpm, 26° C.), enzyme activity was quantified by the luminescent detection of generated ATP. Kinase-Glo® Plus reagent was added to each well and the plates incubated for a further 15 minutes on an orbital shaker in the dark (300 rpm, 26° C.) before luminescence measurement on a plate reader (PHERAstar® FSX, BMG Labtech).
Percentage activation was calculated by normalising […] signals to plate LOW (DMSO vehicle) and HIGH (5 μM TEPP-46) controls. EC50 and Emax values were determined from 4-parameter logistic fits of compound concentration-response curves.

[1] abbreviates: percentage activation normalised to DMSO vehicle (LOW) and 5 μM TEPP-46 (HIGH) controls.

T1 sequence (P14618 2-531 limits assumed): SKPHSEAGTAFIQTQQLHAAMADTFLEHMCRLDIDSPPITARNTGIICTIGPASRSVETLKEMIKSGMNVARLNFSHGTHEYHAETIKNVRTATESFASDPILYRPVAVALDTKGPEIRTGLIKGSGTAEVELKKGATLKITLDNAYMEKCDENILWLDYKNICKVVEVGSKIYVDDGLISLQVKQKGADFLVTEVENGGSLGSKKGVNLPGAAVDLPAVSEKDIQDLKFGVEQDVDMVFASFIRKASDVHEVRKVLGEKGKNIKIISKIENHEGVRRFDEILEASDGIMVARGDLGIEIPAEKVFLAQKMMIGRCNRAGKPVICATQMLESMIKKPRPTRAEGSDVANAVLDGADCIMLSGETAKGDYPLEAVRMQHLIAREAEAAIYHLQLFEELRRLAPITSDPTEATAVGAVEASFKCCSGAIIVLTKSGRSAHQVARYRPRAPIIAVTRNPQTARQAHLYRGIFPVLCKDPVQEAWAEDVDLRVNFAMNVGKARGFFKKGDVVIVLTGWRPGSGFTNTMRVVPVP
T2 sequence (P30613 whole entry): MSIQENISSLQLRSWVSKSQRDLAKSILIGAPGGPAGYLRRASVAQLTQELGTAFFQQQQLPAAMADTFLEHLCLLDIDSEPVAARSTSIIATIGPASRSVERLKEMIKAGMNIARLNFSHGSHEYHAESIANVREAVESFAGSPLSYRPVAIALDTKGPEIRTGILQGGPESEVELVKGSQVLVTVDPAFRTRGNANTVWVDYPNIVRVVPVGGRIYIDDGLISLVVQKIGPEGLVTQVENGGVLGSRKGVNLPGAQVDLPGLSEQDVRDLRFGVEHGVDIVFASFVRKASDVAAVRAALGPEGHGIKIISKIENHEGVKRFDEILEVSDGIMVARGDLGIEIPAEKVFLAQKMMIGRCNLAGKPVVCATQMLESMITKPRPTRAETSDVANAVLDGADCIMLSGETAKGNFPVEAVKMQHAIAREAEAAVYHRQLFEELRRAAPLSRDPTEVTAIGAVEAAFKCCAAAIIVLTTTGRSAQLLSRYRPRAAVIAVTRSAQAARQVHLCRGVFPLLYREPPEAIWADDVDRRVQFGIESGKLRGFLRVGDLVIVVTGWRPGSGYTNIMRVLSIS

What is called Emax is the size of the effect at its maximum, as opposed to the concentration needed. A word on the EC50: it is the concentration giving half of the maximal effect. For the compound `COc1ccc(Cn2ncc3cc([S@@](=N)(=O)c4ccc5c(c4)CCO5)ccc3c2=O)cn1` (single isomer, unassigned) [Example 128], the maximum response (Emax) at recombinant human PKM2 is 80.8%; at recombinant human PKLR (setting [1]), 132%. The values for the concentration for a half-maximal effect (EC50) on recombinant human PKM2 and at recombinant human PKLR were 0.0345 µM and 0.0072 µM, respectively.
As to `COc1ccc([S@@](=N)(=O)c2ccc3c(=O)n(Cc4ccc(OC)nc4)ncc3c2)cc1` (single isomer, unassigned) [Example 138], the results for the maximal response (Emax) at recombinant human PKM2 and at recombinant human PKLR (setting [1]) were 91.2% and 133%, respectively. Also, the EC50 on recombinant human PKM2 came out at 0.0856 µM; at recombinant human PKLR, 0.014 µM.
In the case of `COc1ccc([S@@](=N)(=O)c2ccc3c(=O)n(Cc4ccc(OC)nc4)ncc3c2)cc1` (single isomer, unassigned) [Example 191], at recombinant human PKM2, the “hPKM2 Emax” value was 91.2% and the EC50 is 0.0856 µM. Further, the EC50 at recombinant human PKLR came to 0.014 µM. Moreover, the “hPKLR Emax (%)” value at recombinant human PKLR (setting [1]) was determined as 133%.
Regarding `COc1ccc([S@](=N)(=O)c2ccc3c(=O)n(Cc4ccc(OC)nc4)ncc3c2)cc1` (single isomer, unassigned) [Example 192], at recombinant human PKM2, the “hPKM2 Emax” value is 59.1% and the EC50 came to 0.106 µM. On recombinant human PKLR, the EC50 stood at 0.241 µM. In addition, on recombinant human PKLR (setting [1]), the maximum response (Emax) turned out to be 129%.
Take `COc1ccc(S(=O)(=O)c2ccc3c(=O)n(Cc4cccn(CCO)c4=O)ncc3c2)cc1` [Example 5, 2-((1-(2-hydroxyethyl)-2-oxo-1,2-dihydropyridin-3-yl)methyl)-6-(4-methoxyphenylsulfonyl)phthalazin-1(2H)-one]: the maximal response (Emax) is 102% at recombinant human PKM2 and 111% at recombinant human PKLR (setting [1]). The values for the EC50 at recombinant human PKM2 and on recombinant human PKLR were 0.0607 µM and 0.0193 µM, respectively.
With `O=c1c2ccc(S(=O)(=O)c3ccccc3)cc2cnn1Cc1n[nH]cc1F` [Example 110, 2-((4-fluoro-1H-pyrazol-3-yl)methyl)-6-(phenylsulfonyl)phthalazin-1(2H)-one], the results for the maximum response (Emax) at recombinant human PKM2 and on recombinant human PKLR (setting [1]) were 119% and 118%, respectively. The EC50 on recombinant human PKM2 was found to be 0.0686 µM; on recombinant human PKLR, 0.0296 µM.
Take `COc1ccc(S(=O)(=O)c2ccc3c(=O)n(Cc4ncccc4O)ncc3c2)cc1` [Example 113, 2-((3-hydroxypyridin-2-yl)methyl)-6-(4-methoxyphenylsulfonyl)phthalazin-1(2H)-one]: the Emax at recombinant human PKM2 was determined as 133%; on recombinant human PKLR (setting [1]) it was 118%. Besides, the EC50 on recombinant human PKM2 was 0.163 µM; on recombinant human PKLR, 0.00964 µM.
As to `Nc1cccc(Cn2ncc3cc(S(=O)(=O)c4ccccc4)ccc3c2=O)c1` [Example 141, 2-(3-aminobenzyl)-6-(phenylsulfonyl)phthalazin-1(2H)-one], the values for the maximum response (Emax) at recombinant human PKM2 and at recombinant human PKLR (setting [1]) were 113% and 108%, respectively. For the same compound, the figures for the EC50 on recombinant human PKM2 and at recombinant human PKLR were 0.0783 µM and 0.008 µM, respectively.
As to `COc1ccc(S(=O)(=O)c2ccc3c(=O)n(Cc4cccc(N)c4)ncc3c2)cc1` [Example 142, 2-(3-aminobenzyl)-6-((4-methoxyphenyl)sulfonyl)phthalazin-1(2H)-one], the maximum response (Emax) on recombinant human PKM2 came out at 112%; on recombinant human PKLR (setting [1]), 108%. For the same compound, the EC50 at recombinant human PKM2 amounted to 0.0258 µM; at recombinant human PKLR, 0.0041 µM.
For `COc1ccc(Cn2ncc3cc(S(=O)(=O)c4ccc(C)cc4)ccc3c2=O)cn1` [Example 150, 2-((6-methoxypyridin-3-yl)methyl)-6-tosylphthalazin-1(2H)-one], the figures for the maximal effect (Emax) at recombinant human PKM2 and on recombinant human PKLR (setting [1]) were 90.4% and 85.4%, respectively. In addition, the 50% effective concentration (EC50) on recombinant human PKM2 was found to be 0.0443 µM; on recombinant human PKLR, 0.0064 µM.
With `O=c1c2ccc(S(=O)(=O)c3cnn(C4CC4)c3)cc2cnn1Cc1cccnc1O` [Example 193, 6-(1-cyclopropyl-1H-pyrazol-4-ylsulfonyl)-2-((2-hydroxypyridin-3-yl)methyl)phthalazin-1(2H)-one], the Emax stood at 84.9% at recombinant human PKM2 and 111% at recombinant human PKLR (setting [1]). In addition, the half-maximal effective concentration (EC50) worked out at 0.161 µM at recombinant human PKM2 and 0.0863 µM at recombinant human PKLR.
On to `Cn1ccc(Cn2ncc3cc(S(=O)(=O)c4cnn(C5CC5)c4)ccc3c2=O)n1` [Example 194, 6-(1-cyclopropyl-1H-pyrazol-4-ylsulfonyl)-2-((1-methyl-1H-pyrazol-3-yl)methyl)phthalazin-1(2H)-one], for which the Emax was determined as 113% at recombinant human PKM2 and 112% at recombinant human PKLR (setting [1]). Also, the half-maximal effective concentration (EC50) was found to be 0.0774 µM on recombinant human PKM2 and 0.106 µM at recombinant human PKLR.
On to `O=c1c2ccc(S(=O)(=O)c3ccc4occc4c3)cc2cnn1Cc1cc[nH]n1` [Example 195, 2-((1H-pyrazol-3-yl)methyl)-6-(benzofuran-5-ylsulfonyl)phthalazin-1(2H)-one], for which the Emax worked out at 112% at recombinant human PKM2 and 121% on recombinant human PKLR (setting [1]). For the same compound, the half-maximal effective concentration (EC50) at recombinant human PKM2 is 0.0184 µM; on recombinant human PKLR, 0.002 µM.
Take `O=c1c2ccc(S(=O)(=O)c3cnn(C4CC4)c3)cc2cnn1Cc1ccn(C2CC2)n1` [Example 196, 2-((1-cyclopropyl-1H-pyrazol-3-yl)methyl)-6-((1-cyclopropyl-1H-pyrazol-4-yl)sulfonyl)phthalazin-1(2H)-one]: the results for the Emax at recombinant human PKM2 and on recombinant human PKLR (setting [1]) were 98.9% and 120%, respectively. Also, the concentration for a half-maximal effect (EC50) on recombinant human PKM2 is 0.0476 µM; on recombinant human PKLR, 0.017 µM.
For `Cn1ccc(Cn2ncc3cc(S(=O)(=O)c4ccc5c(c4)NCCO5)ccc3c2=O)n1` [Example 201, 6-((3,4-dihydro-2H-benzo[b][1,4]oxazin-6-yl)sulfonyl)-2-((1-methyl-1H-pyrazol-3-yl)methyl)phthalazin-1(2H)-one], the figures for the Emax at recombinant human PKM2 and on recombinant human PKLR (setting [1]) were 103% and 140%, respectively. Also, the values for the EC50 on recombinant human PKM2 and on recombinant human PKLR were 0.0279 µM and 0.0029 µM, respectively.
Turning to `O=c1c2ccc(S(=O)(=O)c3ccc4c(c3)NCCO4)cc2cnn1Cc1ccn(CCO)n1` [Example 202, 6-((3,4-dihydro-2H-benzo[b][1,4]oxazin-6-yl)sulfonyl)-2-((1-(2-hydroxyethyl)-1H-pyrazol-3-yl)methyl)phthalazin-1(2H)-one], the figures for the maximal response (Emax) at recombinant human PKM2 and on recombinant human PKLR (setting [1]) were 109% and 125%, respectively. Moreover, the results for the EC50 on recombinant human PKM2 and on recombinant human PKLR were 0.0917 µM and 0.0079 µM, respectively.
Regarding `O=c1c2ccc(S(=O)(=O)c3ccc4c(c3)CCO4)cc2cnn1Cc1cc[nH]n1` [Example 203, 2-((1H-pyrazol-3-yl)methyl)-6-((2,3-dihydrobenzofuran-5-yl)sulfonyl)phthalazin-1(2H)-one], the Emax came to 114% at recombinant human PKM2 and 123% on recombinant human PKLR (setting [1]). Besides, the concentration giving a half-maximal response (EC50) at recombinant human PKM2 came out at 0.0353 µM; at recombinant human PKLR, 0.0024 µM.
For `COc1ccc(S(=O)(=O)c2ccc3c(=O)n(Cc4ccn(C5CC5)n4)ncc3c2)cn1` [Example 205, 2-((1-cyclopropyl-1H-pyrazol-3-yl)methyl)-6-((6-methoxypyridin-3-yl)sulfonyl)phthalazin-1(2H)-one], the Emax at recombinant human PKM2 came out at 120%; on recombinant human PKLR (setting [1]) it was 115%. For the same compound, the concentration for a half-maximal effect (EC50) was 0.0592 µM on recombinant human PKM2 and 0.008 µM at recombinant human PKLR.
On the same counts, the results for `O=c1c2ccc(S(=O)(=O)c3ccc4c(c3)OCCO4)cc2cnn1Cc1ccn(CCO)n1` [Example 206, 6-((2,3-dihydrobenzo[b][1,4]dioxin-6-yl)sulfonyl)-2-((1-(2-hydroxyethyl)-1H-pyrazol-3-yl)methyl)phthalazin-1(2H)-one] are 98.7%, 128%, 0.05 µM and 0.0103 µM.
For `O=c1c2ccc(S(=O)(=O)c3ccc4c(c3)OCCO4)cc2cnn1Cc1cc[nH]n1` [Example 207, 2-((1H-pyrazol-3-yl)methyl)-6-((2,3-dihydrobenzo[b][1,4]dioxin-6-yl)sulfonyl)phthalazine-1(2H)-one], the Emax at recombinant human PKM2 was 99.9%; at recombinant human PKLR (setting [1]), 123%. For the same compound, the EC50 is 0.0333 µM at recombinant human PKM2 and 0.0042 µM on recombinant human PKLR.
Take `Cc1cc(S(=O)(=O)c2ccc3c(=O)n(Cc4ccc5c(n4)CCO5)ncc3c2)n[nH]1` [Example 359]: on recombinant human PKM2, the Emax amounted to 112% and the half-maximal effective concentration (EC50) was 0.0242 µM.
Regarding `COCCn1ccc(S(=O)(=O)c2ccc3c(=O)n(Cc4ccc5c(n4)CCO5)ncc3c2)n1` [Example 360], on recombinant human PKM2, the maximal effect (Emax) was 113% and the EC50 worked out at 0.0714 µM.
`O=c1c2ccc(S(=O)(=O)c3cnn(CC(F)(F)F)c3)cc2cnn1Cc1cc[nH]n1` [Example 361]: on recombinant human PKM2, the Emax came out at 93.2% and the EC50 is 0.0794 µM.
In the case of `Cc1c(Cn2ncc3cc(S(=O)(=O)c4cn[nH]c4)ccc3c2=O)nn2c1OCC2` [Example 362], at recombinant human PKM2, the Emax came out at 105% and the EC50 amounted to 0.042 µM.
